These results are taken from US12702649B2, “Method of treating cystic fibrosis airway disease” (priority 2016, dated 2026).

Entries after “also recorded” stand apart in the source; their conditions may differ. Like-named read-outs stand apart in the source and are kept apart here.

Data set [1] deals with nasal pH of healthy volunteers. Put plainly: Nasal pH of healthy human volunteers after instillation. Type of data set: in vivo. The settings on record: for nasal pH: 250 μl of 0.3 M solution. How it is done: (§1) Prior to each study the pH probe was calibrated in buffer solutions of pH 6, 7 and 8 (VWR, West Chester, PA). Voltage was recorded with an Oakton pH6+ meter (Cole-Palmer, Vernon Hills, IL) and corrected to temperature. The probe was positioned at 6 cm from the most caudal aspect of the columella. The probe remained in position until the readings were stable. All measurements were taken from the right nostril and by the same operator. Subjects on intranasal medications (steroids or anticholinergics) or with history of nasal or sinus surgery were excluded from the study.

Another data set has as its system coagulase-negative. The conditions noted are these: aerosolized, non-CF subjects; cited from earlier work.
The test system of data set [2] is S. aureus. Put plainly: CF sputum bacterial killing, bacteria-coated grids assay. Type of data set: cell-based, S. aureus (SH1000). The settings on record: for bacterial killing in human CF sputum: grid assay, compared to saline. How it is done:
Adults diagnosed with CF were recruited. Patients were asked to swallow saliva and to expectorate all secretions during routine clinic visits. Sputum plugs were visually identified and separated from saliva, weighed and stored at −70° C. in small, tightly sealed containers to minimize water loss under needed. […] To guarantee adequate mixing of sputum with the different solutions, the mixture was homogenized (Sonic Dismembrator Model 100, Fisher Scientific) for 30 seconds. All experiments were conducted in a humidified chamber with constant 5% CO2.
To interrogate individual bacteria killing in CF sputum or in pigs, bacteria-coated grids assay were used (Pezzulo A A, Tang X X, Hoegger M J, Alaiwa M H, Ramachandran S, Moninger T O, et al. Reduced airway surface pH impairs bacterial killing in the porcine cystic fibrosis lung. Nature. 2012; 487(7405):109-13. Epub 2012/07/06. doi: 10.1038/nature11130. PubMed PMID: 22763554; PubMed Central PMCID: PMC3390761; Abou Alaiwa M H, Reznikov L R, Gansemer N D, Sheets K A, Horswill A R, Stoltz D A, et al. pH modulates the activity and synergism of the airway surface liquid antimicrobials beta-defensin-3 and LL-37. Proceedings of the National Academy of Sciences of the United States of America. 2014; 111(52):18703-8. doi: 10.1073/pnas.1422091112. PubMed PMID: 25512526; PubMed Central PMCID: PMC4284593). Gold grids (200 mesh, Ted Pella) were functionalized using a series of intervention: 100 mM 11-mercaptoundecanoic acid (MUA in 100% alcohol, Aldrich) for 60 min at room temperature, 1:1 mixture of 100 mM N-ethyl-N-(3-[…]) carbodiimide) (EDC) and 100 mM N-hydroxysuccinimide (NETS) for 30 min at room temperature, 0.1 mg/ml Neutravidin (Sigma) at 37° C. for 1 hour.
Two different strains of S. aureus were used (SH1000 a human strain for CF sputum killing studies and SA43 a porcine strain for pig studies). Bacteria were grown to mid-log phase, incubated with 0.2 mg/ml N-hydroxysulphosuccinimide (sulpho-NHS)-biotin for 60 min at room temperature, quenched with 100 mM glycine to bind excess free biotin and allowed to attach to Neutravidin-coated grids for 15 minutes prior to the experiment.
After bacteria-coated grids were exposed to pig trachea for 5 minutes or CF sputum for 15 minutes, they were immediately rinsed in phosphate buffered saline and stained with SYTO9/propidium iodide (Live/Dead BacLight Bacterial viability assay, Invitrogen), mounted on slides and imaged on a laser-scanning confocal microscope (Olympus FV1000). Live (green) and dead (red) bacteria were automatically counted using Image-based Tool for Counting Nuclei (ITCN 1.6, UCSB Center for Bio-Image Informatics, UC San Barbara) an ImageJ (U.S. National Institutes of Health, Bethesda, Maryland, USA) plugin.

For data set [3], the system named is tracheal ASL of non-CF piglets. In words: Tracheal ASL pH of non-CF (wild type) newborn piglets after aerosolized buffer. Type of data set: in vivo, pig. The source says: (§2) To measure pH in pigs in vivo, non-invasive dual lifetime referencing was used to interrogate a 3×3 mm planar optode (pH sensitive foil, PreSens GmbH) applied directly to the tracheal surface of anesthetized pigs (Pezzulo A A, Tang X X, Hoegger M J, Alaiwa M H, Ramachandran S, Moninger T O, et al. Reduced airway surface pH impairs bacterial killing in the porcine cystic fibrosis lung. Nature. 2012; 487(7405):109-13. Epub 2012/07/06. doi: 10.1038/nature11130. PubMed PMID: 22763554; PubMed Central PMCID: PMC3390761). pH-dependent polarized light phase shift was measured using a single channel pH meter (pH-1 mini; PreSens GmbH). The tip of the fiber optic pH meter was kept at the same constant distance from the tracheal surface in all samples and confirmed by recording the amplitude. Calibration before each set of measurements was done by measuring phase shift from flat filters soaked in standard pH buffers. All measurements were obtained in a humidified chamber at 37° C. and constant 5% CO2 to mimic physiologic conditions.
Pigs were initially sedated with Ketamine (20 mg/kg, IM injection) and Xylazine (2 mg/kg, IM injection) and anesthetized using Propofol (2 mg/kg, IV injection). The trachea was surgically exposed and accessed anteriorly. A small anterior window through the tracheal rings accessed a tracheal window to interventions and pH measurements. All studies obtained in a 100% humidified chamber at 37° C. and constant 5% CO2 to mimic physiologic conditions.

A short description of data set [4]: Buffering capacity by acid titration. Type of data set: physicochemical. The settings on record: 0.3 M tromethamine titrated with 0.1 M HCl. How it is done:
100 mM HCl was delivered into 5 mL of buffer at a rate of 0.2 ml/min. Titration was carried out to endpoint of pH 3. The volume of HCl delivered was recorded and used to calculate the acid equivalents needed to […] pH by 1 unit or buffering capacity.

In data set [5] the test system is tracheal ASL of CF piglets. The conditions noted are these: 15 minutes after aerosolized tromethamine.
Source text: as §2
Pigs were initially sedated with Ketamine (20 mg/kg, IM injection) and Xylazine (2 mg/kg, IM injection) and anesthetized using Propofol (2 mg/kg, IV injection). The trachea was surgically exposed and accessed anteriorly. A small anterior window through the tracheal rings accessed a tracheal window to interventions and pH measurements. […]

The test system of a further data set is human subjects. The settings on record: 24 h after aerosolized nasal delivery. How it is done: as §1
The subject of data set [6] is nasal pH of subjects with cystic fibrosis (CF). How it is done: as §1
The test system of data set [7] is nasal epithelia of CF subjects. An excerpt: Methods Mol Biol. 2011; 741:69-86. doi: 10.1007/978-1-61779-117-8_6. PubMed PMID: 21594779; PubMed Central PMCID: PMCPMC3760477).
The next data set concerns human CF airway cultures. In words: ASL viscosity in human CF airway cultures. Type of data set: cell-based.
For the next data set, the system named is mice. An excerpt:
FIGS. 14A-14G. […] (A) BAL pH measured 3.5 hr after THAM inhalation. Mice were aerosolized with THAM (10× dose used in our prior human studies) or water (ctrl) in a whole-body exposure chamber for 3.5 hrs/d (5 d total). 3 d later mice were euthanized/studied. (B) BAL-total cell cts. (C) BAL-% alveolar macrophages. (D) BAL-LDH activity. […] (F) Airway resistance (FlexiVent). […] (G) Lung histology (HE). Data are mean±SEM. n=4-10/group. * p<0.05, t-test. Some SEM bars are hidden in mean bars.

Data set [8] concerns human non-CF/CF airway epithelial cultures. The conditions noted are these: THAM (1 μl), pH at 0 & 15 m. How it is done:
FIGS. 15A-15B. […] (A) THAM (1 μl) was applied to human n non-CF/CF airway epithelial cultures. pH was measured at 0 & 15 m with SNARF. Data are mean±SEM. n=6 donors/group. * p<0.05, t-test.

The test system of data set [9] is S. aureus. The conditions noted are these: 15 minutes after aerosolized tromethamine, compared to NaCl.
Method: Pigs were initially sedated with Ketamine (20 mg/kg, IM injection) and Xylazine (2 mg/kg, IM injection) and anesthetized using Propofol (2 mg/kg, IV injection). The trachea was surgically exposed and accessed anteriorly. A small anterior window through the tracheal rings accessed a tracheal window to interventions and pH measurements. All studies obtained in a 100% humidified chamber at 37° C. and constant 5% CO2 to mimic physiologic conditions. […]
In another data set the test system is non-CF newborn pig. The settings on record: PARI LC-PLUS nebulizer, distal mainstem bronchi.
For data set [10] the following is noted: intravenous, cited from earlier work.

Source text for human CF airway cultures: (A) Effect of saline or THAM on ASL viscosity in humanCF airway cultures. […] Data are mean±SEM. n=6 individual donors/group. * p<0.05, t-test.
Two approaches are used to investigate the viscoelastic properties of airway mucus. […] Second, in airway epithelial cell cultures from non-CF and CF newborn pig and human donors, mucus viscosity (±THAM) is estimated by measuring the diffusion of fluorescent FITC-dextran with a FRAP assay and ASL/mucus pH using the pH indicator SNARF-1 (FIG. 11D&13A). Viscosity is directly correlated to diffusion. If the viscosity is high, FITC-dextran will slowly diffuse to the photo-bleached ASL areas.
Source text for non-CF newborn pig: THAM was aerosolized into a sedated, non-CF newborn pig with a PARI LC-PLUS® nebulizer, using a cone mask over the snout. After sedation, a pH probe was passed through the vocal cords and into the distal mainstem bronchi. ASL pH was continuously measured.

Turning to `OC[C@@H](O)[C@H](O)[C@@H](O)CO` [xylitol], in [1], the “nasal pH” value was “no effect”. Also, the “nasal coagulase-negative S. aureus colonization” value in the data set on coagulase-negative is recorded as “decreased”.
`NC(CO)(CO)CO` [tromethamine, tris(hydroxymethyl)aminomethane]: in the data set on S. aureus [2], the “bacterial killing in human CF sputum” value is listed as “improved bacterial killing to non-CF levels; also recorded: acutely restored ASL bacterial killing”. Also, in the data set with S. aureus [2] (sputum mixed 1:1 (w/v) with 300 mM tromethamine ± 1197 mM (7%) NaCl, compared to hypertonic saline alone), the “ability of CF sputum to kill S. aureus” value is “increased the ability of CF sputum to kill S. aureus”. Further, in [3] (250 μl 0.3M tromethamine), the “tracheal ASL pH immediately after administration” value is “raised pH”. The “tracheal ASL pH at 60 minutes” value in data set [3] (250 μl 0.3M tromethamine, 60 minutes) is “still higher than baseline”. Also, the “nasal pH” value in [1] is given as “alkalinized the nasal pH”; in data set [6] (250 μl tromethamine), “increased nasal pH”. Moreover, the “pH change at 30 min as share of the maximal pH response” value in [1] (30 min after THAM aerosolization, non-CF noses) is listed as 30%; in [6] (30 min after THAM aerosolization into the nose of people with CF), ~ 80%. In addition, the “additional buffering range at lower pH values” in data set [4] is given as 3-6 pH. Besides, in data set [5], the “tracheal ASL pH” value is on record as “increased pH”. Moreover, in the data set with human subjects, the adverse effects reported entry was “no adverse effects”. The “duration of increased nasal pH” value in data set [6] (250 μl tromethamine, 30 minutes was the total duration of the experiment) is reported as 30 minutes. In [7] (baseline vs 30 min after 250 μl 0.3 M tromethamine), the nasal voltage entry is “no effect”. For the same compound, the epithelial barrier integrity entry in [7] (inferred from nasal voltage) is “no disruption”. Further, the ASL viscosity result in the data set on human CF airway cultures is “reduced viscosity”. Besides, the “airway (BAL) pH” value in the data set with mice (BAL pH 3.5 hr after THAM inhalation) is reported as “raised the airway pH”. The “BAL other proinflammatory cytokines, THAM vs water control” value in the data set with mice (mouse, in vivo) is given as “no difference”. In addition, the “clinical signs, gross pathology, BAL cell counts/cytokines/LDH, bronchoconstriction, histopathology” value with mice (mouse, in vivo) is “no adverse treatment related findings”. The “tolerability of THAM exposure” value in the data set with mice (mouse, in vivo) is on record as “well tolerated”. Further, in data set [8], the “alkalinization of CF vs non-CF epithelia” value was “Alkalinizes CF Epithelia Greater than Non-CF”. For the same compound, the “effect on hBD-3 antimicrobial activity” value with S. aureus Xen-29 (10 mM tromethamine (pH 8.65) vs 10 mM xylitol (pH 7.02), 1 μg/ml hBD-3, ionic strength 125 mM) is on record as “enhanced”. For the same compound, the “effect on LL-37 antimicrobial activity” value in the data set on S. aureus Xen-29 (10 mM tromethamine (pH 8.65) vs 10 mM xylitol (pH 7.02), 10 μg/ml LL-37, ionic strength 125 mM) was “enhanced”. In addition, the results for the ASL bacterial killing result in the data set with S. aureus [9] (listed as THAM) and in the data set with S. aureus [9] (listed as Tromethamine) were “acutely restored ASL bacterial killing” and “enhanced bacterial killing”, respectively. Also, the “airway alkalinization over time” value in the data set with non-CF newborn pig was “Prolonged Airway Alkalinization”. Further, the “persistence of serum alkalinizing effect” value in data set [10] (serum) was 16 to 48 h. The “half-life when given intravenously” value in [10] is “long half-life”.
On to `O=C([O-])O.[Na+]` [NaHCO3], for which the “bacterial killing in human CF sputum” value in the data set on S. aureus [2] is listed as “improved bacterial killing to non-CF levels”. For the same compound, in the data set on S. aureus [2] (sputum mixed 1:1 v/v with 200 mM NaHCO3, compared to equimolar NaCl, grids recovered after 15 minutes), the “CF sputum ability to kill S. aureus” value is on record as “increased the CF sputum ability to kill S. aureus”. Moreover, in data set [3] (250 μl of 200 mM NaHCO3 aerosolized onto exposed trachea), the “tracheal ASL pH” value is recorded as “alkalinized ASL pH”. The “time for ASL pH to return to baseline” value in data set [3] (NaHCO3/HCO3− aerosol, non-CF piglet trachea) is listed as no more than 30 minutes. Also, the “time for nasal pH to return to baseline” value in data set [1] (250 μl of 2% (238 mM) NaHCO3) is no more than 60 minutes. In addition, in [1] (250 μl of 2% (238 mM) NaHCO3 aerosolized into the nose), the “nasal ASL pH” value was “increased ASL pH”. Moreover, in data set [1] (NaHCO3 increased to 5% or 7%), the “effect of a higher concentration on the duration of the rise in nasal pH” value was “no additional effect”. For the same compound, in the data set with human CF airway cultures, the ASL viscosity result is given as “reduced viscosity”. The “effect of increasing HCO3− concentration on hBD-3 antimicrobial activity” value was “slightly inhibited” with S. aureus Xen-29 (constant pH 7.5, absence of Ca2+ & Mg2+, 1 μg/ml hBD-3, NaHCO3 10-80 mM) and “inhibited” in the data set on S. aureus Xen-29 (constant pH 7.5, presence of 1 mM Ca2+ & 1 mM Mg2+, 5 μg/ml hBD-3). Also, the “effect of increasing HCO3− concentration on LL-37 antimicrobial activity” value in the data set with S. aureus Xen-29 (constant pH 7.5, absence of Ca2+ & Mg2+, 100 μm/ml LL-37, NaHCO3 10-80 mM) is “slightly inhibited”; with S. aureus Xen-29 (constant pH 7.5, presence of 1 mM Ca2+ & 1 mM Mg2+, 100 μm/ml LL-37), “inhibited”.
